According to paper PMC7904790 (Nature Communications, 2021):
Like-named read-outs stand apart in the source and are kept apart here.

Assays:
[1] = test system: H2228; experiment: cells; design: CellTiter-Glo viability of fusion-positive human cancer cell lines; conditions: Homo sapiens, NCI-H2228, 72 h
[2] = test system: H3122; experiment: cells; design: CellTiter-Glo viability of fusion-positive human cancer cell lines; conditions: Homo sapiens, NCI-H3122, 72 h
[3] = test system: JFCR-018-1; experiment: cells; design: CellTiter-Glo viability of fusion-positive human cancer cell lines; conditions: 72 h
[4] = test system: JFCR-028-3; experiment: cells; design: CellTiter-Glo viability of fusion-positive human cancer cell lines; conditions: 72 h
[5] = test system: KARPAS299; experiment: cells; design: CellTiter-Glo viability of fusion-positive human cancer cell lines; conditions: Homo sapiens, KARPAS-299, 72 h
[6] = test system: MCC-003; experiment: cells; design: CellTiter-Glo viability of fusion-positive human cancer cell lines; conditions: 72 h
[7] = test system: T1, EML4-ALK WT; experiment: cells; design: CellTiter-Glo viability of Ba/F3 cells dependent on EML4-ALK, without IL-3; conditions: Ba/F3 EML4-ALK, 72 h
T1 construct: EML4-ALK fusion, wild-type kinase domain, expressed in Ba/F3 cells
Procedure: To identify drugs that can overcome these mutations, we screened our focused 90-inhibitor library using Ba/F3 cells expressing EML4-ALK I1171N + F1174I and I1171N + L1198H. At a concentration of 50 nM, gilteritinib suppressed the viability of both wild-type (WT) and compound mutant Ba/F3 cells (Fig. 1a). Since gilteritinib has reported as multi-kinase inhibitor, we first evaluated whether the ALK inhibitory efficacy of gilteritinib is driven by on-target activity or not. As a result of western blot analysis, gilteritinib suppressed the autophosphorylation of ALK in EML4-ALK-expressing Ba/F3 cells (Fig. 1b and Supplementary Fig. 1). […] As well as Ba/F3 cell model, we verified the activity of gilteritinib to H3122 cell line that is EML4-ALK-positive NSCLC cells. […] Then, the inhibitory concentration of gilteritinib is matched between ALK phosphorylation and its downstream signals. […] Further, using the phosphoproteomics data, kinase substrate-enrichment analysis (KSEA) predicted activate kinase candidates as potential gilteritinib targets and identified ALK as the most likely regulated protein (Fig. 1e, Supplementary Figs. 3 and 4, and Supplementary Table 2). To establish Ba/F3 cells expression WT or mutant EML4-ALK, TPM3-NTRK1, and CD74-ROS1 fusion proteins, pLenti6.3 vectors containing the cDNA of these fusion oncogenes were transfected into 293FT cells using packaging plasmids (ViraPower) for lentivirus production. Ba/F3 cells were infected using lentivirus-containing medium supplemented with polybrene (8 μg/ml), and after 24 h of incubation, the infected cells were selected using 7 μg/ml blasticidin (Invitrogen) for 1 week. After selection, each EML4-ALK-, TPM3-NTRK1-, and CD74-ROS1-expressing cell line was cultured in D-10 without IL-3. […] To stablise H3122, JFCR-028-3, MCC-003 cells expression WT or mutant EML4-ALK, KRAS G12C, cells were infected using lentivirus-containing medium supplemented with polybrene (8 μg/ml). After 24 h of incubation, the infected cells were selected using 7 μg/ml blasticidin for H3122, JFCR028-3, and 10 μg/ml for MCC-003, respectively. To stablise H3122 cells expression AXL, pHAGE-AXL vector (purchased from addgene) was transfected into 293FT cells using packaging plasmids for lentivirus production. H3122 cells were infected using lentivirus-containing medium supplemented with polybrene (8 μg/ml), and after 24 h of incubation, EGFP-positive cells were sorted using FACSMelody (BD Bioscience, San Jose, CA, USA). To stablise NIH3T3 oncogene-expressing cells, cells were infected using lentivirus-containing medium supplemented with polybrene (8 μg/ml), and after 24 h of incubation, the infected cells were selected using 2 μg/ml blasticidin for 1 week.

[8] = in vitro; design: CellTiter-Glo viability of parental Ba/F3 cells with IL-3 (counter-screen); conditions: mouse, parental ba/f3 cells +il-3; with IL-3; read-out: IC50 parental Ba/F3 (+IL-3)
Procedure: To identify drugs that can overcome these mutations, we screened our focused 90-inhibitor library using Ba/F3 cells expressing EML4-ALK I1171N + F1174I and I1171N + L1198H. At a concentration of 50 nM, gilteritinib suppressed the viability of both wild-type (WT) and compound mutant Ba/F3 cells (Fig. 1a). Since gilteritinib has reported as multi-kinase inhibitor, we first evaluated whether the ALK inhibitory efficacy of gilteritinib is driven by on-target activity or not. As a result of western blot analysis, gilteritinib suppressed the autophosphorylation of ALK in EML4-ALK-expressing Ba/F3 cells (Fig. 1b and Supplementary Fig. 1). […] As well as Ba/F3 cell model, we verified the activity of gilteritinib to H3122 cell line that is EML4-ALK-positive NSCLC cells. […] Then, the inhibitory concentration of gilteritinib is matched between ALK phosphorylation and its downstream signals. […] Further, using the phosphoproteomics data, kinase substrate-enrichment analysis (KSEA) predicted activate kinase candidates as potential gilteritinib targets and identified ALK as the most likely regulated protein (Fig. 1e, Supplementary Figs. 3 and 4, and Supplementary Table 2).  Fig. 1 Identification of gilteritinib as an inhibitor of ALK-rearranged cancer cells. a Relative cell viability of parental (with IL-3), EML4-ALK wild-type (WT), EML4-ALK I1171N + F1174I, and EML4-ALK I1171N + L1198H Ba/F3 cells treated with 50 nM of the indicated inhibitors. Cell viability was analyzed using the CellTiter-Glo assay and calculated relative to the viability of dimethyl sulfoxide-treated Ba/F3 cells. b The suppression of phospho-ALK in I1171N + F1174I, I1171N + L1198H mutation-expressing Ba/F3 cells was evaluated using western blotting. Cells were treated with the indicated concentrations of gilteritinib for 3 h (n = 2). c The suppression of phospho-ALK and its downstream signals in H3122 parental cells and I1171N + F1174I compound mutation-expressing cells were evaluated using western blotting. […] N = 3 independent samples examined over three independent experiments and representative experiment data are presented as mean values ± SD. e Volcano plot displaying the −log10 (p-value) versus log2 (gilteritinib treatment/DMSO treatment) for all quantified phosphopeptides. The red diamond indicates phospho-ALK.

Structure (SMILES): COc1cc(N2CCC(N3CCN(C)CC3)CC2)ccc1Nc1ncc(Cl)c(Nc2ccccc2P(C)(C)=O)n1 [Brigatinib]
- IC50 ([1]; read-out: Brigatinib IC50): 0.0035 ± 0.001 µM
- IC50 ([2]; read-out: Brigatinib IC50): 0.0079 ± 0.0037 µM
- IC50 ([3]; read-out: Brigatinib IC50): 0.0077 ± 0.00046 µM
- IC50 ([4]; read-out: Brigatinib IC50): 0.0062 ± 0.0015 µM
- IC50 ([5]; read-out: Brigatinib IC50): 0.0071 ± 0.002 µM
- IC50 ([6]; read-out: Brigatinib IC50): 0.063 ± 0.011 µM
- CC50 at 72 h [8]: 0.578 ± 0.113 µM

Structure (SMILES): Cc1cc(Nc2ncc(Cl)c(Nc3ccccc3S(=O)(=O)C(C)C)n2)c(OC(C)C)cc1C1CCNCC1 [Ceritinib]
- IC50 ([1]; read-out: Ceritinib IC50): 0.01 ± 0.0036 µM
- IC50 ([2]; read-out: Ceritinib IC50): 0.015 ± 0.0021 µM
- IC50 ([3]; read-out: Ceritinib IC50): 0.03 ± 0.003 µM
- IC50 ([4]; read-out: Ceritinib IC50): 0.012 ± 0.0033 µM
- IC50 ([5]; read-out: Ceritinib IC50): 0.016 ± 0.0069 µM
- IC50 ([6]; read-out: Ceritinib IC50): 0.074 ± 0.022 µM
- CC50 at 72 h [8]: 0.623 ± 0.033 µM

Structure (SMILES): C[C@@H](Oc1cc(-c2cnn(C3CCNCC3)c2)cnc1N)c1c(Cl)ccc(F)c1Cl [Crizotinib]
- IC50 ([1]; read-out: Crizotinib IC50): 0.028 ± 0.014 µM
- IC50 ([3]; read-out: Crizotinib IC50): 0.136 ± 0.014 µM
- IC50 ([5]; read-out: Crizotinib IC50): 0.051 ± 0.0053 µM
- CC50 at 72 h [8]: 0.371 ± 0.05 µM

Structure (SMILES): CCc1cc2c(cc1N1CCC(N3CCOCC3)CC1)C(C)(C)c1[nH]c3cc(C#N)ccc3c1C2=O [alectinib]
- IC50 ([1]; read-out: Alectinib IC50): 0.0038 ± 0.0012 µM
- IC50 ([5]; read-out: Alectinib IC50): 0.043 ± 0.0075 µM
- IC50 ([6]; read-out: Alectinib IC50): 0.765 ± 0.097 µM
- CC50 at 72 h [8]: 0.899 ± 0.012 µM
